This is an account of results in patent US20260283988A1, “FERROPTOSIS INHIBITORS” (priority 2023, published 2026).

The test system of series [1] is HT-1080. Briefly: Ferroptosis inhibition, cell viability assay (CellTiter-Glo). It counts as cell-based, Human. Particulars: for IC50: Homo sapiens, HT-1080, based on the assays of example 1, read-out: IC50 (Ferroptosis inhibition); for cellular efficacy/toxicity window: cytotoxic IC50 versus ferroptosis inhibition IC50, 1080 min. The protocol:
Cell lines: Human fibrosarcoma cell line HT-1080 and immortalized Mouse Embryonic Fibroblasts (MEF). MEFs were a gift from Daniel Krappmann, HT-1080 were purchased from ATCC and both cell lines were grown in Dulbecco's Modified Eagle's medium (Thermo Fisher Scientific, 41966-029) supplemented with 10% fetal bovine serum (FBS, Thermo Fisher Scientific), 1% Penicillin-Streptomycin (Thermo Fisher Scientific) and 1% nonessential amino acids (MEM NEAA, Thermo Fisher Scientific). Cells were grown at 37° C. and 5% CO2.
HT-1080 were seeded into 384-well plates (CulturPlates, PerkinElmer) with a density of 750 cells per well. After 24 h of growth, cells were treated with 10 or 12-point serial dilutions of compounds in indicated concentrations for 18 h. Viability was detected by using CellTiter-Glo® 2.0 Regent (Promega) according to the manufacturer's instruction and luminescence was read out in an EnVison 2104 Multilabel plate reader (PerkinElmer).

The test system of series [2] is Mouse Embryonic Fibroblasts (MEF). Briefly: Necroptosis assay, TNFα + zVAD-FMK + LCL161, cell viability. It counts as cell-based. The protocol: For detecting necroptosis, MEF were treated with TNFα, zVAD-FMK and LCL161 before addition of Seratrodast or Necrostatin-1. Cell viability was measured after 18 hours by adding CellTiter-Glo® 2.0 Reagent (Promega) according to the manufacturer's instruction and luminescence was read out.

Series [3] in a line: Cytotoxicity, cell viability assay. It is filed as cell-based, Human. Particulars: human, ht-1080 cells, * = signal quenching at higher concentration, toxicity might be less than indicated; read-out: cytotoxic IC50. The protocol:
After 24 h of growth, cells were treated with 10 or 12-point serial dilutions of compounds in indicated concentrations for 18 h.

In series [4] the test system is HT-1080. Nature of the series: Apoptosis assay, Staurosporine-induced Caspase 3/7 activity (Caspase-Glo 3/7). It is filed as cell-based, Human. The protocol:
For detecting apoptosis, HT-1080 were treated with Staurosporine before addition of Seratrodast or zVAD-FMK. Caspase 3/7 activity was measured 18 hours later via Caspase-Glo® 3/7 Assay Reagent (Promega) according to the manufacturer's instruction. Cells were incubated for 45 min at room temperature and luminescence was measured.

Each structure is given as a SMILES string.

In the case of `CC(=O)c1ccc(NC2=C(Cl)C(=O)c3ccccc3C2=O)cc1` [iQFerr02, NQ301], in the series on HT-1080 [1], the half-inhibitory concentration (IC50) came to 27 nM and the cellular efficacy/toxicity window is 28-fold. Moreover, the Necroptosis inhibition entry in series [2] is “no”. The CC50 at 18 h in series [3] stood at 759 nM.

On to `CC(=O)Nc1ccc(NC2=CC(=O)c3ccccc3C2=O)cc1` [iQFerr20, N-[4-(1,4-dioxo-1,4-dihydronaphthalen-2-yl-amino)phenyl]acetamide], for which the Apoptosis inhibition entry in the series with HT-1080 [4] was “no”. Besides, in the series with HT-1080 [1], the half-inhibitory concentration (IC50) turned out to be 8.12 nM and the cellular efficacy/toxicity window is listed as 1254-fold. In addition, the Necroptosis inhibition entry in series [2] is given as “no”. Also, the CC50 at 18 h in series [3] came to 10200 nM.

With `O=C1C=C(C(c2ccccc2)c2ccccc2)C(=O)c2ccccc21` [iQFerr29, 2-diphenylmethyl-1,4-naphtoquinone], in the series with HT-1080 [1], the IC50 was determined as 3.91 nM and the cellular efficacy/toxicity window is reported as 1277-fold. In addition, the Necroptosis inhibition entry in series [2] is on record as “no”. Further, in series [3], the CC50 at 18 h worked out at 4990 nM.

As for `Cc1ccc(N(CCCCCC(=O)O)C2=CC(=O)c3ccccc3C2=O)c(C)c1` [iQFerr38, 6-[(2,4-dimethylphenyl)(1,4-dioxo-1,4-dihydronaphthalen-2-yl)amino]hexanoic acid], the Apoptosis inhibition result in the series with HT-1080 [4] is recorded as “no”. Besides, in the series on HT-1080 [1], the 50% inhibitory concentration (IC50) was determined as 215 nM and the cellular efficacy/toxicity window is on record as 232-fold. The Necroptosis inhibition result in series [2] is on record as “no”. The CC50 at 18 h in series [3] came to 49800 nM.

Take `CC(=O)Nc1ccc(NC2=C(C)C(=O)c3ccccc3C2=O)cc1` [iQFerr39, N-{4-[(3-methyl-1,4-dioxo-1,4-dihydronaphthalen-2-yl)amino]phenyl} acetamide]: in the series with HT-1080 [4], the Apoptosis inhibition entry is reported as “no”. Further, in the series on HT-1080 [1], the 50% inhibitory concentration (IC50) turned out to be 17 nM and the cellular efficacy/toxicity window is 2561-fold. The Necroptosis inhibition entry in series [2] was “no”. The CC50 at 18 h in series [3] is 43500 nM.

Consider `CC1=C(Nc2ccc(C)cc2C)C(=O)c2ccccc2C1=O` [iQFerr41, 2-[(2,4-dimethylphenyl)amino]-3-methyl-1,4-dihydronaphthalene-1,4-dione], for which the Apoptosis inhibition entry in the series with HT-1080 [4] is on record as “no”. In addition, in the series on HT-1080 [1], the IC50 was found to be 2.91 nM and the cellular efficacy/toxicity window is given as 4601-fold. Moreover, in series [2], the Necroptosis inhibition entry is on record as “no”. The CC50 at 18 h in series [3] amounted to 13400 nM.

Regarding `Cc1ccc(N(CCCCCC(N)=O)C2=CC(=O)c3ccccc3C2=O)c(C)c1` [iQFerr43, 6-[(2,4-dimethylphenyl)(1,4-dioxo-1,4-dihydronaphthalen-2-yl)amino]hexanamide], in the series on HT-1080 [4], the Apoptosis inhibition result is “no”. For the same compound, in the series with HT-1080 [1], the IC50 came out at 116 nM and the cellular efficacy/toxicity window was 653-fold. For the same compound, in series [2], the Necroptosis inhibition result is on record as “no”. For the same compound, the CC50 at 18 h in series [3] came to 75400 nM.

In the case of `CC(=O)Nc1ccc(NC2=C(C(F)(F)F)C(=O)c3ccccc3C2=O)cc1` [iQFerr44, N-(4-{[1,4-dioxo-3-(trifluoromethyl)-1,4-dihydronaphthalen-2-yl]amino}phenyl) acetamide], in the series with HT-1080 [1], the half-inhibitory concentration (IC50) was found to be 30.9 nM and the cellular efficacy/toxicity window is 1901-fold. Besides, the Necroptosis inhibition entry in series [2] was “no”. The CC50 at 18 h in series [3] is 58800 nM.

For the compound `CC1=C(Nc2cc(C)cc(C)c2)C(=O)c2ccccc2C1=O` [iQFerr46, 2-[(3,5-dimethylphenyl)amino]-3-methyl-1,4-dihydronaphthalene-1,4-dione], the Apoptosis inhibition result with HT-1080 [4] is reported as “no”. In addition, in the series with HT-1080 [1], the IC50 is 2.11 nM and the cellular efficacy/toxicity window is reported as 36758-fold. In series [2], the Necroptosis inhibition result is “no”. In addition, the CC50 at 18 h in series [3] was determined as 77600 nM.

For the compound `Cc1ccc(NC2=C(C(F)(F)F)C(=O)c3ccccc3C2=O)c(C)c1` [iQFerr47, 2-[(2,4-dimethylphenyl)amino]-3-(trifluoromethyl)-1,4-dihydronaphthalene-1,4-dione], the Apoptosis inhibition result with HT-1080 [4] was “no”. For the same compound, in the series on HT-1080 [1], the 50% inhibitory concentration (IC50) is 10.1 nM and the cellular efficacy/toxicity window was 1458-fold. Moreover, the Necroptosis inhibition result in series [2] is reported as “no”. The CC50 at 18 h in series [3] was 14700 nM.
